Like-named read-outs stand apart in the source and are kept apart here.
Legend:
[1] = test system: human peripheral blood mononuclear cells (PBMC); assay: Effects on human T-cell proliferation in vitro (3H-thymidine incorporation); format: cell-based; details: Homo sapiens, PBMC, read-out: Percentage of inhibition of proliferation of stimulated PBMC
Protocol: The influence of the various test compounds at two different concentrations (50 μM and 10 μM) on cell proliferation of human peripheral blood mononuclear cells (PBMC) was assessed. […] The cells were pulsed with 1 μCi of ^3H-thymidine (Amersham, USA) per well during the last 18 h of the culture, and were harvested on the 96-well filter (Packard Bioscience, USA) using a multiple cell harvester (Packard, USA). The incorporation of ^3H-thymidine in activated cells were measured using TopCount NXT (Packard, USA). […] The positive control refers to LPS-, PMA- or zymosan-stimulated samples that were not treated with test compounds.

[2] = test system: Hep G2; assay: Cytotoxicity assay (MTT), Hep G2 cell line; format: cell-based; details: 24 h
In short: (§1)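 Viability was read as MTT-formazan absorbance at 490 nm after 0.5-2 h with reagent. This followed 24 h compound exposure (50 μM, 12.5 μM) at 37° C in RPM medium. Result expressed as OD490 treated over untreated cells ×100.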

[3] = test system: A549; assay: Cytotoxicity assay (MTT), A549 cell line; format: cell-based; details: 24 h
In short: as §1

[4] = test system: TNF-α; assay: Lipopolysaccharide induced TNF-α production in Balb/cJ mice; format: in vivo; details: Mus musculus, ip, 1.5 h; 10 mg/kg intraperitoneally, 30 min before LPS; 90 min after LPS; read-out: % inhibition of TNF-α production (plasma)
Protocol: Male Balb/cJ mice (Iffa Credo, France) weighing 25-33 g were randomly grouped (n=7 in test group, 7 in positive control group, 4 in negative control group). Test compounds, as well as vehicle [0.125% carboxymethyl-cellulose (Sigma, USA)], were administered to the mice intraperitoneally. Test compounds were administered at a dose of 10 mg/kg of body weight, in a volume of 10 mL/kg of body weight. Thirty minutes later, a sterile solution of lipopolysaccharide (LPS) (Sigma, USA) in saline was intraperitoneally administered at a concentration and volume of 25 μg/0.2 mL/mouse to each animal, except those in negative control. Ninety minutes following administration, all animals were sacrificed by puncturing a. carotis communis. The plasma concentration of TNF-α was determined by sandwich ELISA, using capture and detection antibodies (R&D, USA) according to manufacturer's recommendations. Results are presented in the following table as percent of inhibition of TNF-α production in comparison to the positive control (stimulated, but untreated animals).

[5] = test system: TNF-α; assay: Inhibition of TNF-α production by stimulated human peripheral blood leukocytes in vitro; format: cell-based; details: Homo sapiens, Leukocyte, read-out: Percentage of inhibition of TNF-α production
In short: (§2)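 Values are percentage inhibition of cytokine release versus stimulated leukocytes lacking compound. Human blood leukocytes received 50 μM or 10 μM compound for 2 h before overnight LPS, PMA or zymosan stimulation, and supernatants were assayed by ELISA.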

[6] = test system: IL-1α; assay: Inhibition of IL-1 production by stimulated human peripheral blood leukocytes in vitro; format: cell-based; details: Homo sapiens, Leukocyte, read-out: Percentage of inhibition of IL-1α production
[7] = test system: IL-6; assay: Inhibition of IL-6 production by stimulated human peripheral blood leukocytes in vitro; format: cell-based; details: Homo sapiens, Leukocyte, read-out: Percentage of inhibition of IL-6 production
In short: as §2

[8] = test system: IL-8; assay: Inhibition of IL-8 production by stimulated human peripheral blood leukocytes in vitro; format: cell-based; details: Homo sapiens, Leukocyte, read-out: Percentage of inhibition of IL-8 production
In short: as §2

[9] = test system: granulocytes; format: in vitro ADME; details: human, 180 min, 10 μM
Protocol: (§3) Granulocytes were obtained from heparinized whole blood using density gradiant centrifugation. Erythrocytes were sedimented on 3% dextran T-500 (Amersham Pharmacia Biotech AB, Uppsala, Sweden). Leukocytes were centrifuged on Ficoll (Amersham Pharmacia Biotech AB, Uppsala, Sweden) for 35 min at 600 g at 20° C. The pellet of granulocytes was cleared from remaining erythrocytes by a brief hypotonic lysis.
7.5×10^6 granulocytes, isolated as described above, were suspended in 3 mL of RPMI 1640 (Institute of Immunology, Croatia) containing 10 μM of tested macrolide. Samples were incubated at 37° C. for 180 min. Following incubation, the samples were centrifuged through the layer of Poly(dimethylsiloxane-co-diphenylsiloxane), dihydroxy terminated-silicone oil (Aldrich Chemical Company, Milwaukee, USA). The pellet was resuspended in 0.5% Triton X-100 (Sigma, St. Louis, USA) in deionized water (MilliQ, Millipore Corporation, Bedford, USA). The suspension was sonicated, proteins were precipitated with acetonitrile, and the concentration of macrolide in the supernatants was determined by liquid chromatography-mass spectrometry (LC-MS).
Intracellular concentrations of the test compounds were calculated from the mean cell number recovered after centrifuging through silicone oil. According to the literature, about 1 million neutrophils is considered to have a volume of 0.24 μL (Vazifeh et al., Antimicrob Agents Chemo. 1997; 41: 2099-2107). To estimate the extent of macrolide accumulation, the intracellular to extracellular concentration ratio (I/E) was calculated, where E (due to a large volume of incubation medium) was taken as constant (10 μM). Results are expressed relative to azithromycin according to the following equation: % of azithromycin uptake =(I/E of a substance/I/E of azithromycin)×100. I/E values obtained for azithromycin were 164±10.

[10] = test system: granulocytes; assay: Inhibition of degranulation of granulocytes (free neutrophil elastase activity); format: cell-based, human; details: Homo sapiens, Neutrophil, compound 50 μM, read-out: Percentage of inhibition of degranulation of granulocytes
Protocol: as §3
1×10^6 granulocytes, isolated as described above, were resuspended in RPMI-1640 medium (Institute of Immunology, Croatia), and were incubated with 10 or 50 μM of test compound together with cytochalasine B (5 μg/mL) for 2 h at 37° C. Degranulation then was induced by the addition of 0.1 μM fMLP (Sigma, USA) or 0.5 μM A23187 (Calbiochem, USA). The activity of free neutrophil elastase was determined with a chromogenic substrate specific for human neutrophil elastase, such as N-(methoxysuccinyl)-L-alanyl-L-alanyl-L-prolyl-L-valine 4-nitroanilide (Sigma Chemical Company, St Louis, Mo., USA). Elastase activity, as a marker of primary granules, was assessed in supernatant using a spectrophotometer at an absorbance of 405 nm.
Results are expressed as the percent of inhibition of degranulation in unstimulated cells, and in stimulated cells treated with fMLP or A23187.

CC[C@H]1OC(=O)[C@H](C)[C@@H](O[C@H]2C[C@@](C)(OC)[C@@H](OC(=O)CCN3CCN(CCN(CC)CC)CC3)[C@H](C)O2)[C@H](C)[C@@H](O[C@@H]2O[C@H](C)C[C@H](N(C)C)[C@H]2O)[C@](C)(OC)C[C@@H](C)C(=O)N[C@H](C)[C@@H](O)[C@]1(C)O [Example 14]
inhibition at 10 µM ([1]; PHA): 23% | inhibition at 50 µM ([1]; PHA): 99% | inhibition at 10 µM ([1]; PMA + iono.): 24% | inhibition at 50 µM ([1]; PMA + iono.): 91% | Percentage of inhibition of cell growth ([2]; 12.5 μM): 0% | Percentage of inhibition of cell growth ([2]; 50 μM): 0% | Percentage of inhibition of cell growth ([3]; 12.5 μM): 4% | Percentage of inhibition of cell growth ([3]; 50 μM): 0% | inhibition in vivo at 10 mg/kg [4]: 96%

CC[C@H]1OC(=O)[C@H](C)[C@@H](O[C@H]2C[C@@](C)(OC)[C@@H](OC(=O)CCN3CCN(CCCN(CC)CC)CC3)[C@H](C)O2)[C@H](C)[C@@H](O[C@@H]2O[C@H](C)C[C@H](N(C)C)[C@H]2O)[C@](C)(OC)C[C@@H](C)C(=O)N[C@H](C)[C@@H](O)[C@]1(C)O [Example 31]
inhibition at 10 µM ([1]; PHA): 23% | inhibition at 50 µM ([1]; PHA): 99% | inhibition at 10 µM ([1]; PMA + iono.): 24% | inhibition at 50 µM ([1]; PMA + iono.): 91% | Percentage of inhibition of cell growth ([2]; 12.5 μM): 0% | Percentage of inhibition of cell growth ([2]; 50 μM): 0% | Percentage of inhibition of cell growth ([3]; 12.5 μM): 0% | Percentage of inhibition of cell growth ([3]; 50 μM): 0% | inhibition in vivo at 10 mg/kg [4]: 92%

CC[C@H]1OC(=O)[C@H](C)[C@@H](O[C@H]2C[C@@](C)(OC)[C@@H](OCCCN)[C@H](C)O2)[C@H](C)[C@@H](O[C@@H]2O[C@H](C)C[C@H](N(C)C)[C@H]2O)[C@](C)(O)C[C@@H](C)CN(C)[C@H](C)[C@H]2OC(=O)O[C@@]21C [Example 51C, 11,12-Carbonate-11,12-dideoxy-4″-O-(3-aminopropyl)-azithromycin]
inhibition at 10 µM ([5]; LPS-stimulated PBL): 5% | inhibition at 10 µM ([5]; PMA-stimulated PBL): 18% | inhibition at 10 µM ([5]; zymosan-stimulated PBL): 38% | inhibition at 50 µM ([5]; LPS-stimulated PBL): 0% | inhibition at 50 µM ([5]; PMA-stimulated PBL): 4% | inhibition at 50 µM ([5]; zymosan-stimulated PBL): 0% | inhibition at 10 µM ([6]; LPS-stimulated PBL): 2% | inhibition at 10 µM ([6]; PMA-stimulated PBL): 0% | inhibition at 10 µM ([6]; zymosan-stimulated PBL): 62% | inhibition at 50 µM ([6]; LPS-stimulated PBL): 0% | inhibition at 50 µM ([6]; PMA-stimulated PBL): 0% | inhibition at 50 µM ([6]; zymosan-stimulated PBL): 0% | inhibition at 10 µM ([7]; LPS-stimulated PBL): 4% | inhibition at 10 µM ([7]; PMA-stimulated PBL): 27% | inhibition at 10 µM ([7]; zymosan-stimulated PBL): 42% | inhibition at 50 µM ([7]; LPS-stimulated PBL): 0% | inhibition at 50 µM ([7]; PMA-stimulated PBL): 6% | inhibition at 50 µM ([7]; zymosan-stimulated PBL): 0% | inhibition at 10 µM ([8]; LPS-stimulated PBL): 0% | inhibition at 10 µM ([8]; PMA-stimulated PBL): 12% | inhibition at 10 µM ([8]; zymosan-stimulated PBL): 26% | inhibition at 50 µM ([8]; LPS-stimulated PBL): 0% | inhibition at 50 µM ([8]; PMA-stimulated PBL): 0% | inhibition at 50 µM ([8]; zymosan-stimulated PBL): 0% | Uptake (% azithromycin) [9]: 122 % azithromycin | Percentage of inhibition of cell growth ([2]; 12.5 μM): 15% | Percentage of inhibition of cell growth ([2]; 50 μM): 7% | Percentage of inhibition of cell growth ([3]; 12.5 μM): 0% | Percentage of inhibition of cell growth ([3]; 50 μM): 0%

CC[C@H]1OC(=O)[C@H](C)[C@@H](O[C@H]2C[C@@](C)(OC)[C@@H](O)[C@H](C)O2)[C@H](C)[C@@H](O[C@@H]2O[C@H](C)C[C@H](N(C)C)[C@H]2O)[C@](C)(O)C[C@@H](C)C(=O)[C@H](C)[C@@H](O)[C@]1(C)O [erythromycin, reference compound]
inhibition at 50 µM ([10]; A23187 0.5 μM): 0% | inhibition at 50 µM ([10]; fMLP 0.1 μM): 23%
